Experimental data: patent publication US20250155433A1, “FLUORESCENT SENSORS FOR DETECTION OF SIDEROPHORES AND OTHER MOLECULES PRODUCED BY BACTERIAL PATHOGENS” (Kansas State University Research Foundation, priority 2021, published 2025)
Like-named read-outs stand apart in the source and are kept apart here. *1 amine or outer side, *2 acyl side, *3 side chain or, on linkers, in order; H or OH if unused. Where a SMILES comes first, the peptide text is derived from it. Bridges are numbered along the chain shown (N, C = ends). [ ]: non-standard residue; d: D form. X1 = O=C([C@@H]1CCN=C2C(N[*:1])=Cc3cc(O)c(O)cc3N21)[*:2]; Orn(N5-OH,N5-Ac) = CC(=O)N(O)CCC[C@H](N)C(=O)O; X2 = O=CN(O)CCC[C@H](N[*:1])C(=O)[*:2]; Suc = O=C(CCC(=O)[*:2])[*:1]

Tests used:
[1] = target: T1, PaeFpvA (Pseudomonas aeruginosa, UniProt P48632, T660C); experiment: Fluorescence quenching binding to PaeFpvA-FM sensor; details: secondary ligands
T1 construct: expressed in transfected cells; host or cells: E. coli OKN3/OKN13/OKN359/OKN1359 carrying a pITS23 derivative
Procedure: (§1) Fluorescence modifications. For modifications with maleimide fluorophores, we inoculated E. coli strains OKN3, OKN13, OKN359 or OKN1359, harboring plasmids that encoded a Cys mutant LGP, from frozen stocks into LB, grew them overnight and sub-cultured at 1% into iron-deficient MOPS minimal media, with shaking (200 rpm) at 37° C. for 10-12 h, until late exponential phase. After collecting the cells by centrifugation at 7500×g for 15 min, and washing with 50 mM NaHPO4, pH 6.7, we labeled the Cys-mutant LGP with 5 μM FM in 50 mM NaHPO4, pH 6.7 for 15 min at 37° C. FM. We terminated the labeling reactions with 100 μM β-mercaptoethanol. […] After electrophoresis, we first visualized the fluorescence labeling on a Typhoon 8600 Biomolecular Scanner (GE/Amersham), and then stained the gels with Coomassie blue R (153).
(§2) Fluorescence spectroscopic binding determinations. We observed fluorophore-labeled cells in an SLM AMINCO 8100 fluorescence spectrometer, upgraded with an OLIS operating system and software (OLIS SpectralWorks, OLIS Inc., Bogart, GA), to control its shutters, polarizers and data collection. We also utilized an OLIS Clarity fluorescence spectrometer for fluorescence assays. […] We performed each measurement in triplicate and calculated the mean value of F/F0 at each ligand concentration. […]

[2] = test system: CRE/ESKAPE pathogens; experiment: Decoy sensor measurements of metal complex uptake by bacteria; type: cell-based
Text: Fluorescence spectroscopic uptake measurements. We employed FD sensors to monitor TonB-dependent uptake of various siderophores by bacterial pathogens. In the fluorescence spectroscopic uptake studies E. coli OKN13 (ΔtonB, ΔfepA) or OKN1359 (ΔtonB, Δfiu, ΔfepA, Δcir) were host strains for pITS23 derivatives carrying single Cys mutants of an LGP of interest. The FLGP were decoy sensors that monitored ferric siderophore uptake by test strains. For each assay we used 10^7 sensor cells (e.g., OKN13/pFepA-FM (53)) in a 2 mL quartz cuvette containing PBS+0.2% glucose at 37° C. After recording fluorescence intensity for 100 seconds, we added an iron complex (e.g., FeEnt) at a final concentration of ˜10 nM. After incubating the sample for 100 seconds, during which time fluorescence was quenched (e.g., ˜60% quenching for EcoFepA_A698C-FM), we added 0.5-2×10^7 cells of the test strain (E. coli MG1655, K. pneumoniae Kp52.145, A. baumannii 17978, P. aeruginosa PA01, E. cloacae) and monitored the time-course of fluorescence emissions at 520 nm for 15-40 minutes, with stirring.

[3] = target: KpnFepA2380; experiment: Fluorescence quenching binding to KpnFepA2380-FM sensor; parameters: species or system Klebsiella pneumoniae; details: ferric complexes; Cys residue T255C, FM-labeled; NB = no binding; read-out: Affinity (KD) of sensor KpnFepA 2380
Procedure: as §1, §2

[4] = target: T2, AbaPirA (Acinetobacter baumannii, UniProt D0C8V9); details: read-out: Affinity (KD) of sensor AbaPirA; ferric complexes; Cys residue S328C, FM-labeled; NB = no binding
T2 construct: fused on or other part: EcoFepA signal peptide in place of its own (cleaved on export); fluorescein maleimide on the engineered Cys
Procedure: For modifications with maleimide fluorophores, we inoculated E. coli strains OKN3, OKN13, OKN359 or OKN1359, harboring plasmids that encoded a Cys mutant LGP, from frozen stocks into LB, grew them overnight and sub-cultured at 1% into iron-deficient MOPS minimal media, with shaking (200 rpm) at 37° C. for 10-12 h, until late exponential phase. After collecting the cells by centrifugation at 7500×g for 15 min, and washing with 50 mM NaHPO4, pH 6.7, we labeled the Cys-mutant LGP with 5 μM FM in 50 mM NaHPO4, pH 6.7 for 15 min at 37° C. […] We terminated the labeling reactions with 100 μM β-mercaptoethanol. […]
We also utilized an OLIS Clarity fluorescence spectrometer for fluorescence assays. […] We performed each measurement in triplicate and calculated the mean value of F/F0 at each ligand concentration. We plotted 1−F/F0 vs [ligand] and analyzed the data by the 1-site binding model of Grafit 6.0.12 (Erithacus Ltd. West Sussex, UK), that fits data to a single site saturation curve, where the amount of ligand bound is plotted as a function of the amount free:
For each determination, we measured the extent of fluorescence quenching of an FLGP, when exposed to sequentially increasing concentrations of the listed metal complexes, as plotted in FIGS. 2-4. […]

[5] = target: T3, EcoFiu (Escherichia coli, UniProt P75780, A694C); experiment: biochemical; type: binding
T3 construct: expressed in transfected cells; host or cells: E. coli OKN3/OKN13/OKN359/OKN1359 carrying a pITS23 derivative
Procedure: (§3) Fluorescence modifications. For modifications with maleimide fluorophores, we inoculated E. coli strains OKN3, OKN13, OKN359 or OKN1359, harboring plasmids that encoded a Cys mutant LGP, from frozen stocks into LB, grew them overnight and sub-cultured at 1% into iron-deficient MOPS minimal media, with shaking (200 rpm) at 37° C. for 10-12 h, until late exponential phase. After collecting the cells by centrifugation at 7500×g for 15 min, and washing with 50 mM NaHPO4, pH 6.7, we labeled the Cys-mutant LGP with 5 μM FM in 50 mM NaHPO4, pH 6.7 for 15 min at 37° C. FM. We terminated the labeling reactions with 100 μM β-mercaptoethanol. After collecting the fluoresceinated cells by centrifugation at 7500×g for 15 min, and washing with 50 mM NaHPO4, pH 6.7, we re-suspended them in PBS plus 0.2% glucose. We either immediately used the labeled cells in spectroscopic experiments, or rested them on ice (up to 24 h), or added glycerol to 15% and stored them (indefinitely) as 1 mL aliquots at −70° C. In the latter case, after thawing the labeled cells we pelleted them by centrifugation in a microfuge, washed them once with and re-suspended them in PBS containing 0.2% glucose. Lastly, for evaluation of protein expression or the extent of FM-labeling we solubilized aliquots of the cell suspensions with sample buffer, and subjected them to SDS-PAGE. After electrophoresis, we first visualized the fluorescence labeling on a Typhoon 8600 Biomolecular Scanner (GE/Amersham), and then stained the gels with Coomassie blue R (153).
(§4) Fluorescence spectroscopic binding determinations. We observed fluorophore-labeled cells in an SLM AMINCO 8100 fluorescence spectrometer, upgraded with an OLIS operating system and software (OLIS SpectralWorks, OLIS Inc., Bogart, GA), to control its shutters, polarizers and data collection. We also utilized an OLIS Clarity fluorescence spectrometer for fluorescence assays. For binding determinations we deposited 2.5×10^7 labeled cells in a quartz cuvette (final volume, 2 mL) with stirring at 37° C., measured the initial fluorescence (F0), and then added increasing concentrations of an iron complex while monitoring the quenching of fluorescence emissions (F) at 520 nm. We performed each measurement in triplicate and calculated the mean value of F/F0 at each ligand concentration. We plotted 1−F/F0 vs [ligand] and analyzed the data by the 1-site binding model of Grafit 6.0.12 (Erithacus Ltd. West Sussex, UK), that fits data to a single site saturation curve, where the amount of ligand bound is plotted as a function of the amount free:
(§5) These plots yielded KD values for each of the receptor-ligand interactions, with associated standard errors.
(§6) Table 1 lists KD values from analysis of fluorescence quenching with ferric or apo (parenthetic values) siderophores or porphyrins. For each determination, we measured the extent of fluorescence quenching of an FLGP, when exposed to sequentially increasing concentrations of the listed metal complexes, as plotted in FIGS. 2-4. We performed each experiment 2 or 3 times. The tabulated KD values are from single, representative experiments, in which we collected each data point in triplicate, plotted F/F0 vs [ligand] for each quenching titration, and fitted the curves to a single site binding model using Grafit 6.012 (Erithacus Ltd, […], UK).

[6] = target: T4, EcoCir (Escherichia coli, UniProt P17315, G512C); experiment: biochemical; type: binding
T4 construct: expressed in transfected cells; host or cells: E. coli OKN3/OKN13/OKN359/OKN1359 carrying a pITS23 derivative
Procedure: as §3, §4, §5, §6

[7] = target: AbaPiuA (Acinetobacter baumannii, UniProt D0CAH3, S724C); experiment: Fluorescence quenching binding to AbaPiuA-FM sensor
Procedure: as §3, with “In the latter case, after thawing the labeled cells we pelleted them by centrifugation in a microfuge, washed them once with and re-suspended them in PBS containing 0.2% glucose. Lastly, for evaluation of protein expression or the extent of FM-labeling we solubilized aliquots of the cell suspensions with sample buffer, and subjected them to SDS-PAGE.” left out
as §4, with “We plotted 1−F/F0 vs [ligand] and analyzed the data by the 1-site binding model of Grafit 6.0.12 (Erithacus Ltd. West Sussex, UK), that fits data to a single site saturation curve, where the amount of ligand bound is plotted as a function of the amount free:” left out
(§7) Table 1 lists KD values from analysis of fluorescence quenching with ferric or apo (parenthetic values) siderophores or porphyrins. […]

[8] = target: KpnIroN (Klebsiella pneumoniae, UniProt A0ACD7U953, T234C); experiment: Fluorescence quenching binding to KpnIroN-FM sensor; details: read-out: Affinity (KD) of sensor KpnIroN; ferric complexes; Cys residue T210C, FM-labeled; NB = no binding
Procedure: as §1, §2

[9] = target: AbaBauA (Acinetobacter baumannii, UniProt Q76HJ9, S407C); experiment: Fluorescence quenching binding to AbaBauA-FM sensor
Procedure: as §1, §2

[10] = target: T5, HsaSCN (human siderocalin) (Homo sapiens, UniProt P80188, Q148C); experiment: Fluorescence quenching binding to purified HsaSCN-FM sensor
T5 construct: adds a 6H-tag at either the N- or C-termini of the mature proteins; 6-His (N); made in house; host or cells: E. coli BL21 (pET28), IPTG-induced; purified on Talon Superflow

[11] = target: EcoFhuA (Escherichia coli, UniProt P06971); experiment: Fluorescence quenching binding to EcoFhuA-FM sensor
Procedure: as §3
as §4, with “free: […]” for “free:”
as §7

[12] = target: T6, EcoIutA (Escherichia coli, UniProt P14542, T573C); experiment: Fluorescence quenching binding to EcoIutA-FM sensor; details: other ferric hydroxamates
T6 construct: expressed in transfected cells; host or cells: E. coli OKN3/OKN13/OKN359/OKN1359 carrying a pITS23 derivative
Procedure: as §3
as §4, with “free: […]” for “free:”
as §7

[13] = target: KpnFyuA; experiment: Fluorescence quenching binding to KpnFyuA-FM sensor; parameters: species or system Klebsiella pneumoniae
Procedure: as §3, with “In the latter case, after thawing the labeled cells we pelleted them by centrifugation in a microfuge, washed them once with and re-suspended them in PBS containing 0.2% glucose. Lastly, for evaluation of protein expression or the extent of FM-labeling we solubilized aliquots of the cell suspensions with sample buffer, and subjected them to SDS-PAGE.” left out
as §4, with “We plotted 1−F/F0 vs [ligand] and analyzed the data by the 1-site binding model of Grafit 6.0.12 (Erithacus Ltd. West Sussex, UK), that fits data to a single site saturation curve, where the amount of ligand bound is plotted as a function of the amount free:” left out
as §7

SMILES: O=C(N[C@H]1COC(=O)[C@@H](NC(=O)c2cccc([O-])c2[O-])COC(=O)[C@@H](NC(=O)c2cccc([O-])c2[O-])COC1=O)c1cccc([O-])c1[O-].[Fe+3] [FeEnt, ferric enterobactin]
- Binding by PaeFpvA [1]: weakly bound
- Transport rate ([2]; iron deficient Gram (−) bacteria with maximally expressed chromosomal FepA): ~50 pMol/10^9 cells/min
- Kd [3]: 12.8 µM

SMILES: CC(C)(O/N=C(\C(=O)N[C@@H]1C(=O)N2C(C(=O)[O-])=C(C[N+]3(CCNC(=O)c4ccc([O-])c([O-])c4Cl)CCCC3)CS[C@H]12)c1csc(N)n1)C(=O)[O-].[Fe+3] [FeFDC]
- Kd [4]: 4.8 µM
- Kd [5]: 540 nM
- Kd [6]: 60 nM
- Kd [7]: 57 µM
- Kd [8]: 580 nM
- Kd [9]: 181 µM

SMILES: O=C(N[C@H]1COC(=O)[C@@H](NC(=O)c2cc([C@@H]3O[C@H](CO)[C@@H](O)[C@H](O)[C@H]3O)cc(O)c2[O-])COC(=O)[C@@H](NC(=O)c2cc([C@@H]3O[C@H](CO)[C@@H](O)[C@H](O)[C@H]3O)cc(O)c2[O-])COC1=O)c1cccc(O)c1[O-].[Fe+3] [FeGEnt]
- Binding by AbaPiuA [7]: did not bind

SMILES: C[C@@H](O)[C@@H]1NC(=O)[C@H](CCCN([O-])C=O)NC(=O)[C@@H](NC(=O)[C@H](CCCN([O-])C=O)NC(=O)[C@@H](CO)NC(=O)[C@H](CCCNC(=N)N)NC(=O)[C@@H](CO)NC(=O)[C@@H]2CCN=C3C(NC(=O)CCC(=O)O)=Cc4cc(O)c([O-])cc4N32)CCCCNC(=O)[C@H]([C@@H](C)O)NC1=O.[Fe+3] [FePvd] (Suc-[X1][dS]R[dS][X2]K[X2]TT; lactam 6-C)
- TonB-dependent uptake by test strains ([2]; decoy sensors in TonB-deficient E. coli, 37° C., strains grown in iron-deficient MOPS): exclusive transport of FePvd by P. aeruginosa

SMILES: CC(=O)N(O)CCCCCNC(=O)CCC(=O)N(O)CCCCCNC(=O)CCC(=O)N(O)CCCCCN.[Fe+3] [FxB]
- Kd ([10]; read-out: Affinity (KD) of sensor HsaSCN, ferric complexes and porphyrins, Cys residue Q128C, FM-labeled purified protein, NB = no binding): 175 nM
- Kd ([10]; read-out: KD, HsaSCN-FM): 180 nM
- Kd ([11]; read-out: Affinity (KD) of sensor EcoFhuA, ferric complexes, Cys residue D396C, FM-labeled, NB = no binding): 100 µM
- Binding by IutA [12]: did not measurably bind
- Kd ([13]; ferric complexes, Cys residue S631C, FM-labeled, NB = no binding, read-out: Affinity (KD) of sensor KpnFyuA): 277 µM
- Binding by KpnFyuA ([13]; secondary ligands): weakly bound

SMILES: CC(C)(C1=N[C@@](C)(C(=O)O)CS1)[C@H](O)[C@@H]1CSC([C@H]2CSC(c3ccccc3O)=N2)N1 (stereo partly shown) [Ybt, yersiniabactin]
- Kd ([13]; apo (parenthetic value), S631C, read-out: Affinity (KD) of sensor KpnFyuA, apo siderophore): 0.12 µM

SMILES: CC(=O)N(O)CCC[C@@H]1NC(=O)CNC(=O)CNC(=O)CNC(=O)[C@H](CCCN(O)C(C)=O)NC(=O)[C@H](CCCN(O)C(C)=O)NC1=O [apoFc] (cyclo(GGG[Orn(N5-OH,N5-Ac)][Orn(N5-OH,N5-Ac)][Orn(N5-OH,N5-Ac)]))
- Kd ([11]; read-out: Affinity (KD) of sensor EcoFhuA, apo siderophore, apo (parenthetic value), D396C): 0.2 µM
